One series relates to NucS. Format: biochemical, Streptomyces sp. MBE174. As to the method: (§1) In this case, 1 U represents an amount of enzymes necessary to increase the absorbancy of 260 nm by one for 30 minutes when the enzymes works on the following as substrate: Salmon sperm DNA 1 mg/mL (manufactured by Invitrogen; Cat no. 15632-011).
(§2) NucS and NucL were kept in contact with the compounds listed in Table 3 on an ice bath for one hour, and then, the enzyme activity was measured by the standard specific activity measurement method (referring to Table 3). […] Incidentally, poorly water-soluble compounds were dissolved in dimethyl sulfoxide, and then added to an enzyme solution. The final concentration of dimethyl sulfoxide after addition was 5 percent. The activity in the presence of 5 percent of dimethyl sulfoxide was regarded as being 100 percent.

A further series concerns NucL. The class given is biochemical, Streptomyces sp. MBE174. The note with it: for effect of the chemical substance on NucL activity (in words): summary of Table 3. As to the method: as §1, §2
The next series deals with Salmon sperm DNA. The series is described as follows: standard specific activity measurement method (increase of absorbancy at 260 nm). Format: biochemical. The note with it: fraction after each purification step of NucS (Table 1). As for the experimental part:
The specific activity of NucS was measured at 37 degrees Celsius in 20 mM of Tris/HCl at pH 8.5 that contains 1 mM of MgCl2 and 1 mM of CaCl2 (a measurement method under the condition described here is also referred to as a standard specific activity measurement method, hereinafter); the specific activity was 3.6×10^6 U/mg-protein, which was a very high level of specific activity. In this case, 1 U represents an amount of enzymes necessary to increase the absorbancy of 260 nm by one for 30 minutes when the enzymes works on the following as substrate: Salmon sperm DNA 1 mg/mL (manufactured by Invitrogen; Cat no. 15632-011). As a reference, as for NucS, when the specific activity of Benzonase (Registered Trademark), which was a commercially available nucleolytic enzyme that had the highest specific activity among those listed in a brochure, was measured under the conditions described in the brochure (37 degrees Celsius) with the use of the same substrate; the specific activity was 9.4×10^5 U/mg-protein. As a result, it became clear that the specific activity of NucS is about 3.8 times higher than that of Benzonase.
The specific activity of NucL was 5.6×10^4 U/mg-protein at 37 degrees Celsius in 20 mM of Tris/HCl at pH 8.5 that contains 1 mM of MgCl2 and 1 mM of CaCl2. The isoelectric point was measured by using Novex (Registered Trademark) IEF pH-3-10 gel (manufactured by Invitrogen); and then pl was 7.0. Then, it was determined that a N-terminal amino acid sequence of the purified enzyme was DSVRIHDIQGTTR. The sequence matched 12 out of 13 amino acids of putative protein (putative secreted hydrolase) coded on a genome of Streptomyces scabiei 87.22, and of putative protein (large secreted protein) coded on a genome of S. avermitilis MA-4680.

Setting [1] is: chemical at 1.0 mM, contact on ice bath one hour, additive-free = 100.
Setting [2] is: chemical at 5.0 mM, contact on ice bath one hour, additive-free = 100.
Where [3] appears, read: chemical at 0.1 mM, contact on ice bath one hour, additive-free = 100.
The mark [4] stands for this setting: chemical at 1.0%, contact on ice bath one hour, additive-free = 100.
[5] abbreviates: chemical at 10.0%, contact on ice bath one hour, additive-free = 100.
Where [6] appears, read: chemical at 20.0%, contact on ice bath one hour, additive-free = 100.
Where [7] appears, read: chemical at 0.1%, contact on ice bath one hour, additive-free = 100.
The mark [8] stands for this setting: chemical at 2.0M, contact on ice bath one hour, additive-free = 100.
Where [9] appears, read: chemical at 4.0M, contact on ice bath one hour, additive-free = 100.
The mark [10] stands for this setting: chemical at 6.0M, contact on ice bath one hour, additive-free = 100.

Here are results for 14 molecules from patent publication US9217139B2, “Extracellularly secreted nuclease” (JAPAN AGENCY FOR MARINE-EARTH SCIENCE AND TECHNOLOGY, priority 2010, dated 2015).

Values joined by “and” are separate entries in the source; they are usually repeats but may differ in a detail not shown here. Equal values may be shown once. Read-outs that look alike come from different tables or passages of the source.

For `O[C@H](CS)[C@H](O)CS` (racemic) [Dithiothreitol], the “Relative activity of NucS (%)” value in the series on NucS (setting [1]) is 105%; in the series on NucS (setting [2]) it was 104%. The “Relative activity of NucL (%)” value in the series on NucL (setting [1]) and in the series with NucL (setting [2]) was 89% throughout.

Take `[Cl][Cu][Cl]` [CuCl2]: the “Relative activity of NucS (%)” value in the series on NucS (setting [3]) was found to be 111%; in the series on NucS (setting [1]), 3%. The “effect of the chemical substance on NucS activity (in words)” value (“effect … on NucS activity (in words)” for short) in the series on NucS (summary of Table 3) is “strongly inhibited”. Besides, the figures for the “Relative activity of NucL (%)” value in the series with NucL (setting [3]) and with NucL (setting [1]) were 96% and 9%, respectively. Further, the “effect of the chemical substance on NucL activity (in words)” value (shortened to “effect … on NucL activity (in words)”) in the series on NucL was “strongly inhibited”.

As to `CN(C)C=O` [Dimethyl formamide], the “Relative activity of NucS (%)” value is 91% in the series on NucS (setting [4]), 118% with NucS (setting [5]) and 117% with NucS (setting [6]). For the same molecule, in the series on NucS (summary of Table 3), the “effect … on NucS activity (in words)” value is given as “high resistance”. For the same molecule, the “Relative activity of NucL (%)” value with NucL (setting [4]) came out at 99%; in the series on NucL (setting [5]), 74%; with NucL (setting [6]), 56%.

Regarding `C[S+](C)[O-]` [Dimethyl sulfoxide], the “Relative activity of NucS (%)” value with NucS (setting [4]) was 110%; in the series with NucS (setting [5]), 116%; in the series on NucS (setting [6]) it was 113%. Besides, the “effect … on NucS activity (in words)” value with NucS (summary of Table 3) is “high resistance”. The results for the “Relative activity of NucL (%)” value in the series with NucL (setting [4]), with NucL (setting [5]) and in the series on NucL (setting [6]) were 105%, 75% and 40%, respectively.

For `O=C(O)CN(CCN(CC(=O)O)CC(=O)O)CC(=O)O` [Ethylenediaminetetraacetic acid], in the series with NucS, the “Relative activity of NucS (%)” value is on record as 0% and the “effect … on NucS activity (in words)” value is “strongly inhibited”. Further, in the series with NucL (setting [2]), the “Relative activity of NucL (%)” value is 0%. Moreover, the “Relative activity of NucL (%)” value in the series on NucL (chemical at 10.0 mM, contact on ice bath one hour, additive-free = 100) stood at 0%. Also, the “effect … on NucL activity (in words)” value with NucL was “strongly inhibited”.

As to `O=C(O)CI` [Iodoacetic acid], in the series on NucS, the “Relative activity of NucS (%)” value was 103% and 96%. Moreover, the “Relative activity of NucL (%)” value with NucL is 102% and 97%.

`OCCS` [Melcaptoethanol]: the “Relative activity of NucS (%)” value in the series with NucS (setting [1]) is 112%; in the series on NucS (setting [2]), 116%. The “Relative activity of NucL (%)” value in the series with NucL (setting [1]) worked out at 89%; with NucL (setting [2]) it was 92%.

For the molecule `O=C(O)c1cc[c]([Hg][Cl])cc1` [Parachloro mercury benzoate], the “Relative activity of NucS (%)” value in the series with NucS (setting [3]) was determined as 92%; with NucS (setting [1]) it was 94%. The “Relative activity of NucL (%)” value in the series with NucL (setting [3]) was found to be 108%; with NucL (setting [1]), 91%.

Regarding `O=S(=O)(F)Cc1ccccc1` [Phenylmethanesulfonyl fluoride], the “Relative activity of NucS (%)” value with NucS (setting [1]) was 85%; in the series on NucS (setting [2]), 87%. In addition, the “Relative activity of NucL (%)” value amounted to 111% in the series with NucL (setting [1]) and 99% in the series on NucL (setting [2]).

For `CCCCCCCCCCCCOS(=O)(=O)[O-].[Na+]` [SDS], the “Relative activity of NucS (%)” value amounted to 85% with NucS (setting [7]) and 0% in the series with NucS (setting [4]). Further, the “Relative activity of NucL (%)” value in the series on NucL (setting [7]) is given as 89%; with NucL (setting [4]), 121%. For the same molecule, the “effect … on NucL activity (in words)” value in the series on NucL was “high resistance”.

Consider `NC(N)=O` [Urea], for which the figures for the “Relative activity of NucS (%)” value with NucS (setting [8]), with NucS (setting [9]) and in the series on NucS (setting [10]) were 125%, 126% and 92%, respectively. Moreover, the “Relative activity of NucL (%)” value in the series on NucL (setting [8]) was found to be 64%; with NucL (setting [9]) it was 55%; with NucL (setting [10]), 43%.

Turning to `[Cl-].[Cl-].[Zn+2]` [ZnCl2], the “Relative activity of NucS (%)” value in the series with NucS (setting [3]) is given as 3%; in the series on NucS (setting [1]), 0%. In addition, in the series with NucS (summary of Table 3), the “effect … on NucS activity (in words)” value is on record as “strongly inhibited”. The “Relative activity of NucL (%)” value in the series on NucL (setting [3]) is reported as 1%; with NucL (setting [1]), 0%. Also, the “effect … on NucL activity (in words)” value in the series on NucL was “strongly inhibited”.

For Hydroxyapatite, the “Specific activity (U/mg)” value in the series on Salmon sperm DNA was found to be 38596 U/mg.

As for Triton X, the results for the “Relative activity of NucS (%)” value in the series on NucS (setting [7]) and in the series with NucS (setting [4]) were 115% and 108%, respectively. For the same molecule, the “Relative activity of NucL (%)” value with NucL (setting [7]) stood at 137%; with NucL (setting [4]), 128%.
